Test results as given in paper PMC12559008 (Nature cancer, 2025).

Key:
[1] = MTD dose stated for CPT comparators; settings: mouse, in vivo, intravenous
[2] = mouse, in vivo
[3] = pKa measurement by pH titration; format: physicochemical; settings: pH probe, titration of SM-AZO-PTX and SM-AZE-PTX
[4] = B6129SF1/J, mouse, in vivo, iv, 24 h
in vivo = settings: B6129SF1/J, mouse, iv

In the case of `CC[C@@]1(O)C(=O)OCc2c1cc1n(c2=O)Cc2cc3ccccc3nc2-1` [Free CPT, Camptothecin], the MTD [1] is reported as 5 mg/kg.

In the case of Taxol, the “myelosuppression and neuropathy (sternums and dorsal root ganglia), in words” value [2] is reported as “severely damaged sternums and dorsal root ganglia tissues”.

For `C1CCCNCC1` [AZE, Azepane], the pKa [3] was about 6.98.

In the case of `Nc1ccn([C@@H]2O[C@H](CO)[C@@H](O)C2(F)F)c(=O)n1` [GEM, gemcitabine], the “Injected GEM dose (%), Tumor” value [4] is reported as 0.21% and the half-life (in vivo) is reported as 23.4 ± 3.6 min.

In the case of `C1CCCNCCC1` [AZO, Azocane], the pKa [3] is reported as 5.75.
